{"source": "patent US20140142170A1", "about": "“COMPOSITION AND METHOD FOR INFLUENCING ENERGY METABOLISM AND TREATING METABOLIC AND OTHER DISORDERS” (SIRTUIN VALLEY OY, priority 2010, published 2014)", "assay_type_in_all_cases": "cell-based", "key": {"PGC-1α": {"test_system": "PGC-1α", "assay": "PGC-1α protein expression, immunoblot and densitometry in 3T3 L1 preadipocytes", "settings": "60 μM, 24 hours, control = 100%", "experimental": "3T3L1 cells were purchased from American Type Culture Collection (Manassas, Va., USA) and cultured in DMEM media containing 4.5 g/l glucose supplemented with 10% fetal bovine serum (Hyclone), 2 mM L-glutamine (Gibco), 100 U/ml penicillin, and 100 μg/ml streptomycin (Gibco). The cells were cultured at 37° C. in a humidified atmosphere with 10% CO2. […]\n(§1) Protein concentrations were measured using a BCA (bicinchoninic acid) protein assay kit (Cat.#23225; Pierce, Rockford, Ill.). Twenty (20) μg/lane of total cellular protein samples containing NuPAGE LDS sample buffer (Invitrogen) and reducing agent were loaded into 4-12% NuPAGE Bis-Tris gels (Invitrogen), subjected to gel electrophoresis, and transferred to polyvinylidene fluoride membranes (Amersham). For SIRT1 proteins, membranes were blocked in 0.05% TBS-Tween with 3% milk for 1 hour, incubated overnight at +4° C. with SIRT1 primary antibodies (Cat.#07-131, Millipore). For phospho-AMPKα and AMPKα proteins, blocking was done for 1 hour in 0.1% TBS-Tween with 5% milk. The membranes were incubated overnight at +4° C. with phospho-AMPKα (Cat. #2535, Cell Signaling) and AMPKα (Cat.#2532, Cell Signaling) primary antibodies. Horseradish peroxidase-conjugated anti-rabbit antibodies (Cat. #NA934V GE Health Care, Amersham, U.K) were used as secondary antibodies. For α-tubulin (loading control), membranes were blocked in 0.05% PBS-Tween with 3% milk for 1 hour, incubated with α-tubulin (Cat.# B-5-1-2, Sigma) primary antibodies for 1 hour at room temperature and horseradish peroxidase-conjugated anti-mouse (Cat. # NA 931V GE Health Care, Amersham, U.K.) IgG antibodies were used as secondary antibodies.\n(§2) The membranes were developed using chemiluminescence (ECL plus, GE Health Care), and images were captured in an Image Quant RT-ECL machine (version 1.0.1; GE Health Care). Densitometry and quantification of the bands were done by applying Quantity One software (Bio-Rad). The expression levels of the proteins were normalized to α-tubulin protein levels.\nPGC-1α as an indicator of SIRT1 activity: PGC-1α has been extensively described as a master regulator of mitochondrial biogenesis. […] When SIRT1 protein expression is induced, it interacts with and deacetylates PGC-1α in an NAD-dependent manner. Thus SIRT1 acts as a modulator of PGC-1a (Rodgers J T et al, Nature 2005). The effects of resveratrol, a nonselective SIRT1 activator, were associated with an induction of genes for oxidative phosphorylation and mitochondrial biogenesis, and were largely explained by a resveratrol-mediated decrease in PGC-1α acetylation and an increase in PGC-1α activity (Lagouge M, Cell 2006). Therefore, PGC-1α protein expression serves as an indicator of SIRT1 activity.\n3T3L1 cells were purchased from American Type Culture Collection (Manassas, Va., USA) and cultured in DMEM media containing 4.5 g/l glucose supplemented with 10% fetal bovine serum (Hyclone), 2 mM L-glutamine (Gibco) and 100 U/ml penicillin, 100 μg/ml streptomycin (Gibco). The cells were cultured at 37° C. in a humidified atmosphere with 10% CO2. 3T3L1 preadipocytes were plated at 1×10^5 cells/well in 6 well plates and incubated at 37° C. in a humidified atmosphere with 10% CO2. The media was removed after 24 hours and the cells were treated with 60 μM GR24 or with 60 μM 1A, 1B, 5A, 5B, 6A, or 7A and incubated for 24 hours at 37° C. in a humidified atmosphere with 10% CO2. In all experiments, the controls were treated with the same volume of DMSO as was used to dissolve compounds in compound-treated cells to show and ensure that the actual change in protein expression in different treatments was only due to the compounds […]. The media was removed, cells were washed with PBS and cell lysates were collected on ice. Proteins were extracted using RIPA buffer along with protease and phosphatase inhibitors. Lysates were centrifuged for 30 min at high speed; supernatant was collected and stored at −70° C. until further analysis."}, "phospho-ACC": {"test_system": "phospho-ACC", "assay": "phospho-ACC expression, immunoblot in 3T3 L1 preadipocytes", "settings": "24 hours; for phosphorylated ACC expression vs control: 3T3L1 preadipocytes, 100 μM"}, "AMPK": {"test_system": "AMPK", "assay": "total AMPK expression, immunoblot in 3T3L1 preadipocytes", "settings": "100 μM, 24 hours", "experimental": "(§3) 3T3L1 cells were purchased from American Type Culture Collection (Manassas, Va., USA) and cultured in DMEM media containing 4.5 g/l glucose supplemented with 10% fetal bovine serum (Hyclone), 2 mM L-glutamine (Gibco), 100 U/ml penicillin, and 100 μg/ml streptomycin (Gibco). The cells were cultured at 37° C. in a humidified atmosphere with 10% CO2.\nThe 3T3L1 cells were plated at 6×10^4 cells/well in 12 well plates and incubated at 37° C. in a humidified atmosphere with 10% CO2. […] The media was removed, cells were washed with PBS, and cell lysates were collected on ice. Proteins were extracted using RIPA buffer along with protease and phosphatase inhibitors. Lysates were centrifuged for 30 min at high speed; supernatant was collected and stored at […] until further analysis. The vehicle controls were 3T3 L1 cells without any treatment with drugs or other compounds. The drugs or compounds that were used in all the experiments were dissolved or diluted in dimethylsulfoxide (DMSO) as diluent. […]\nProtein concentrations were measured using a BCA (bicinchoninic acid) protein assay kit (Cat.#23225; Pierce, Rockford, Ill.). […]\nThe membranes were developed using chemiluminescence (ECL plus, GE Health Care), and images were captured in an Image Quant RT-ECL machine (version 1.0.1; GE Health Care). Densitometry and quantification of the bands were done by applying Quantity One software (Bio-Rad). […]"}, "phospho-AMPK": {"test_system": "phospho-AMPK", "assay": "phospho-AMPK expression / AMPK activation, immunoblot in 3T3 L1 preadipocytes", "settings": "24 hours; for phospho-AMPK expression compared to control: 60 μM; for phosphorylated AMPK expression vs control: 3T3L1 preadipocytes, 100 μM", "experimental": "as §3\nThe 3T3L1 cells were plated at 6×10^4 cells/well in 12 well plates and incubated at 37° C. in a humidified atmosphere with 10% CO2. […] The media was removed, cells were washed with PBS, and cell lysates were collected on ice. Proteins were extracted using RIPA buffer along with protease and phosphatase inhibitors. Lysates were centrifuged for 30 min at high speed; supernatant was collected and stored at […] until further analysis. The vehicle controls were 3T3 L1 cells without any treatment with drugs or other compounds. The drugs or compounds that were used in all the experiments were dissolved or diluted in dimethylsulfoxide (DMSO) as diluent. In all experiments, the controls were treated with the same volume of DMSO as was used to dissolve drugs or compounds in compound-treated cells to show and ensure that the actual change in protein expression in different treatments was due solely to the compounds or combination of compounds and not to the DMSO.\nas §1, §2"}}, "note": "“And” between values parts separate entries of the source, which are not always exact repeats. Equal entries are not always repeated. “Also recorded” adds a separate entry of the source.", "data": [{"smiles": "CC1=CC(O/C=C2/C(=O)O[C@@H]3c4ccccc4C[C@H]23)OC1=O", "note": "(stereo partly shown) [GR24]", "values": [{"measurement": "PGC-1α protein expression compared to control (100%)", "setting": "PGC-1α", "result": "168% and 164% and 198% and 220% and 149%"}, {"measurement": "phospho-ACC expression (phosphorylation of ACC) compared to control", "setting": "phospho-ACC; 3T3 L1 preadipocytes, 60 μM", "result": "no change"}, {"measurement": "phosphorylated ACC expression vs control", "setting": "phospho-ACC", "result": "down-regulated"}, {"measurement": "phosphorylated ACC expression vs control", "setting": "phospho-ACC; listed as GR 24", "result": "decrease"}, {"measurement": "total AMPK expression vs control", "setting": "AMPK", "result": "down-regulated"}, {"measurement": "AMPK activation (pAMPK/AMPK/α-tubulin ratio) compared to control", "setting": "phospho-AMPK; 3T3 L1 preadipocytes, 60 μM each compound", "result": "no activation"}, {"measurement": "phospho-AMPK expression compared to control", "setting": "phospho-AMPK; 3T3 L1 preadipocytes", "result": "significant increase in expression with resveratrol but not with GR24; also recorded: did not"}, {"measurement": "phospho-AMPK expression compared to control", "setting": "phospho-AMPK; 3T3 L1 preadipocytes, listed as GR 24", "result": "significant increase in expression with resveratrol but not with GR 24"}, {"measurement": "phosphorylated AMPK expression vs control", "setting": "phospho-AMPK", "result": "down-regulated"}, {"measurement": "phosphorylated AMPK expression vs control", "setting": "phospho-AMPK; listed as GR 24", "result": "down-regulation"}]}]}
